The values below come from patent US11180483B2, “Substituted reverse pyrimidine Bmi-1 inhibitors” (PTC Therapeutics, Inc., priority 2012, dated 2021).

pEC50: −log10 of the molar value.

For data set [1], the system named is Bmi-1. Kind of data set: Sandwich ELISA Assay (Bmi-1 ELISA) in HT-1080 cells. Type of data set: cell-based. The essentials:
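HT-1080 cells exposed to compound in 0.5% final DMSO for 40-48 h at 37 °C, then lysed. Bmi-1 was quantified by sandwich ELISA: mouse monoclonal capture, rabbit anti-Bmi-1 detection, HRP anti-rabbit and TMB. Read at OD450 (OD570 reference) against a recombinant GST-Bmi-1 standard curve (0-8000 pg/mL).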

On to `Nc1cc(Nc2ccc(C(F)(F)F)cc2)nc(-c2c(C(F)(F)F)nc3ccccn23)n1` [Cpd 66, 2-[2-(trifluoromethyl)imidazo[1,2-a]pyridin-3-yl]-N-[4-(trifluoromethyl)phenyl]pyrimidine-4,6-diamine], for which the melting point lay in the range of 203 to 205 °C. The same compound showed a pEC50 in data set [1] of 7.00 to 8.00.
The like results for `Nc1cc(Nc2ccc(OC(F)(F)F)cc2)nc(-c2c(C(F)(F)F)nc3ccccn23)n1` [Cpd 67, N-[4-(trifluoromethoxy)phenyl]-2-[2-(trifluoromethyl]imidazo[1,2-a]pyridin-3-yl]pyrimidine-4,6-diamine] were, in that order, 199 to 202 °C and 5.52 to 7.00.
Consider `Cc1nc2ccc(F)cn2c1-c1nc(N)cc(Nc2ccc(OC(F)F)cc2)n1` [Cpd 69, N-[4-(difluoromethoxy)phenyl]-2-(6-fluoro-2-methylimidazo[1,2-a]pyridin-3-yl)pyrimidine-4,6-diamine], for which the melting point fell in the range of 136 to 138 °C. In data set [1], this compound showed a pEC50 of 7.00 to 8.00.
The like results for `Cc1nn(C)c(C)c1-c1nc(N)cc(Nc2ccc(C(F)(F)F)cc2)n1` [Cpd 70, N-[4-(trifluoromethyl)phenyl]-2-(1,3,5-trimethyl-1H-pyrazol-4-yl)pyrimidine-4,6-diamine] were, in that order, 270 to 271 °C and 5.52 to 7.00.
`Cc1nc2ccc(F)cc2n1-c1nc(N)cc(Nc2ccc(OC(F)F)cc2)n1` [Cpd 72, N-[4-(difluoromethoxy)phenyl]-2-(6-fluoro-2-methyl-1H-benzimidazol-1-yl)pyrimidine-4,6-diamine] came in with a melting point of 168 to 170 °C. This compound had a negative logarithm of the EC50 (pEC50) in data set [1] of 7.00 to 8.00.
As for `Nc1cc(Nc2ccc(OC(F)F)c(F)c2)nc(-c2c(C3CC3)nc3ccc(F)cn23)n1` [Cpd 75, 2-(2-cyclopropyl-6-fluoroimidazo[1,2-a]pyridin-3-yl)-N-[4-(difluoromethoxy)-3-fluorophenyl]pyrimidine-4,6-diamine], the melting point lay in the range of 198 to 200 °C. For the same compound, the pEC50 in data set [1] is 5.52 to 7.00.
In turn, `Cc1nc2ccc(F)cc2n1-c1nc(N)cc(Nc2ccc(OC(F)F)c(F)c2)n1` [Cpd 76, N-[4-(difluoromethoxy)-3-fluorophenyl]-2-(6-fluoro-2-methyl-1H-benzimidazol-1-yl)pyrimidine-4,6-diamine] displayed a melting point of 182 to 183 °C. Also, in data set [1], the pEC50 is 7.00 to 8.00.
The like results for `CCc1nc2ccc(F)cc2n1-c1nc(N)cc(Nc2ccc(OC(F)F)c(F)c2)n1` [Cpd 77, N-[4-(difluoromethoxy)-3-fluorophenyl]-2-(2-ethyl-6-fluoro-1H-benzimidazol-1-yl)pyrimidine-4,6-diamine] were, in that order, 156 to 158 °C and 7.00 to 8.00.
The like results for `Nc1cc(Nc2ccc(OC(F)F)c(F)c2)nc(-n2c(C3CC3)nc3ccc(F)cc32)n1` [Cpd 78, 2-(2-cyclopropyl-6-fluoro-1H-benzimidazol-1-yl)-N-[4-(difluoromethoxy)-3-fluorophenyl]pyrimidine-4,6-diamine] were, in that order, 186 to 188 °C and 7.00 to 8.00.
For `CCc1nc2ccc(F)cc2n1-c1nc(N)cc(Nc2ccc(C(F)(F)F)cc2)n1` [Cpd 81, 2-(2-ethyl-6-fluoro-1H-benzimidazol-1-yl)-N-[4-(trifluoromethyl)phenyl]pyrimidine-4,6-diamine], in that order: 201 to 203 °C and 7.00 to 8.00.
On to `Cc1nc2ncc(F)cn2c1-c1nc(N)cc(Nc2ccc(C(F)(F)F)cc2)n1` [Cpd 100, 2-(6-fluoro-2-methylimidazo[1,2-a]pyrimidin-3-yl)-N-[4-(trifluoromethyl)phenyl]pyrimidine-4,6-diamine], for which the melting point was in the range of 256 to 258 °C. The same compound had a negative logarithm of the EC50 (pEC50) in data set [1] of 5.52 to 7.00.
With `Nc1cc(Nc2ccc(OC(F)F)cc2)nc(-n2c(C3CC3)nc3ccc(F)cc32)n1` [Cpd 143, 2-(2-cyclopropyl-6-fluoro-1H-benzimidazol-1-yl)-N-[4-(difluoromethoxy)phenyl]pyrimidine-4,6-diamine], the melting point was in the range of 175 to 177 °C. In data set [1], this compound showed a pEC50 of 8.00 to 9.00.
The like results for `CCc1nc2ccc(F)cc2n1-c1nc(N)cc(Nc2ccc(OC(F)F)cc2)n1` [Cpd 144, N-[4-(difluoromethoxy)phenyl]-2-(2-ethyl-6-fluoro-1H-benzimidazol-1-yl)pyrimidine-4,6-diamine] were, in that order, 166 to 168 °C and 7.00 to 8.00.
For `Nc1cc(Nc2ccc(OC(F)F)cc2)nc(-n2c(C(F)F)nc3ccc(F)cc32)n1` [Cpd 145, N-[4-(difluoromethoxy)phenyl]-2-[2-(difluoromethyl)-6-fluoro-1H-benzimidazol-1-yl]pyrimidine-4,6-diamine], in that order: 114 to 115 °C and 8.00 to 9.00.
Compound `Nc1cc(Nc2ccc(C(F)(F)F)cc2)nc(-n2c(C3CC3)nc3ccccc32)n1` [Cpd 149, 2-(2-cyclopropyl-1H-benzimidazol-1-yl)-N-[4-(trifluoromethyl)phenyl]pyrimidine-4,6-diamine] returned a melting point of 199 to 201 °C. The compound further gave a pEC50 in data set [1] of 7.00 to 8.00.
For the compound `COCc1nc2ccccc2n1-c1nc(N)cc(Nc2ccc(C(F)(F)F)cc2)n1` [Cpd 150, 2-[2-(methoxymethyl)-1H-benzimidazol-1-yl]-N-[4-(trifluoromethyl]phenyl]pyrimidine-4,6-diamine], the melting point is 212 to 213 °C. The compound also had a pEC50 in data set [1] of 7.00 to 8.00.
For `CC(C)c1nc2ccccc2n1-c1nc(N)cc(Nc2ccc(C(F)(F)F)cc2)n1` [Cpd 151, 2-[2-(propan-2-yl)-1H-benzimidazol-1-yl]-N-[4-(trifluoromethyl]phenyl]pyrimidine-4,6-diamine], in that order: 216 to 218 °C and 7.00 to 8.00.
For `Nc1cc(Nc2ccc(C(F)(F)F)cc2)nc(-n2c(C(F)F)nc3ccccc32)n1` [Cpd 152, 2-[2-(difluoromethyl)-1H-benzimidazol-1-yl]-N-[4-(trifluoromethyl)phenyl]pyrimidine-4,6-diamine], in that order: 187 to 188 °C and 7.00 to 8.00.
The like results for `CCc1nc2ccccc2n1-c1nc(N)cc(Nc2ccc(C(F)(F)F)cc2)n1` [Cpd 153, 2-(2-ethyl-1H-benzimidazol-1-yl)-N-[4-(trifluoromethyl]phenyl]pyrimidine-4,6-diamine] were, in that order, 183 to 185 °C and 7.00 to 8.00.
In turn, `Cc1cn2c(-c3nc(N)c(F)c(Nc4ccc(C(F)(F)F)cc4)n3)c(C)nc2c(C)n1` [Cpd 174, 5-fluoro-N-[4-(trifluoromethyl)phenyl]-2-(2,6,8-trimethylimidazo[1,2-a]pyrazin-3-yl)pyrimidine-4,6-diamine] registered a melting point of 166 to 168 °C. In addition, the pEC50 in data set [1] is 5.52 to 7.00.
The compound `Cc1cn2c(-c3nc(N)c(F)c(Nc4ccc(OC(F)F)cc4)n3)c(C)nc2c(C)n1` [Cpd 175, N-[4-(difluoromethoxy)phenyl]-5-fluoro-2-(2,6,8-trimethylimidazo[1,2-a]pyrazin-3-yl)pyrimidine-4,6-diamine] showed a melting point of 141 to 143 °C. Besides, the pEC50 in data set [1] was 5.52 to 7.00.
The like results for `Cc1cn2c(-c3nc(N)c(F)c(Nc4ccc(OC(F)F)c(F)c4)n3)c(C)nc2c(C)n1` [Cpd 176, N-[4-(difluoromethoxy)-3-fluorophenyl]-5-fluoro-2-(2,6,8-trimethylimidazo[1,2-a]pyrazin-3-yl)pyrimidine-4,6-diamine] were, in that order, 140 to 141 °C and 5.52 to 7.00.
The like results for `CCc1nn2ccc(F)cc2c1-c1nc(N)c(F)c(Nc2ccc(OC(F)F)cc2)n1` [Cpd 186, N-[4-(difluoromethoxy)phenyl]-2-(2-ethyl-5-fluoropyrazolo[1,5-a]pyridin-3-yl)-5-fluoropyrimidine-4,6-diamine] were, in that order, 103 to 105 °C and 5.52 to 7.00.
With `CCc1nn2ccc(F)cc2c1-c1nc(N)c(F)c(Nc2ccc(C(F)(F)F)cc2)n1` [Cpd 187, 2-(2-ethyl-5-fluoropyrazolo[1,5-a]pyridin-3-yl)-5-fluoro-N-[4-(trifluoromethyl)phenyl]pyrimidine-4,6-diamine], the melting point lay within 164 to 166 °C. The same compound had a pEC50 in data set [1] of 5.52 to 7.00.
The like results for `CCc1nn2ccc(F)cc2c1-c1nc(N)c(F)c(Nc2ccc(OC(F)F)c(F)c2)n1` [Cpd 188, N-[4-(difluoromethoxy)-3-fluorophenyl]-2-(2-ethyl-5-fluoropyrazolo[1,5-a]pyridin-3-yl)-5-fluoropyrimidine-4,6-diamine] were, in that order, 150 to 152 °C and 5.52 to 7.00.
The like results for `Cc1nc2ccccc2n1-c1nc(N)cc(Nc2ccc3c(c2)OCO3)n1` [Cpd 205, N-(1,3-benzodioxol-5-yl)-2-(2-methyl-1H-benzimidazol-1-yl)pyrimidine-4,6-diamine] were, in that order, 166 to 167 °C and 8.00 to 9.00.
The like results for `Cc1nc2ccccc2n1-c1nc(N)cc(Nc2ccc3c(c2)OC(F)(F)O3)n1` [Cpd 206, N-(2,2-difluoro-1,3-benzodioxol-5-yl)-2-(2-methyl-1H-benzimidazol-1-yl)pyrimidine-4,6-diamine] were, in that order, 141 to 142 °C and 7.00 to 8.00.
Consider `COc1ccc(Nc2cc(N)nc(-n3c(C)nc4ccccc43)n2)cc1F` [Cpd 207, N-(3-fluoro-4-methoxyphenyl)-2-(2-methyl-1H-benzimidazol-1-yl)pyrimidine-4,6-diamine], for which the melting point was 233 to 234 °C. Also, the pEC50 in data set [1] was 8.00 to 9.00.
The like results for `COc1ccc(Nc2cc(N)nc(-n3c(C)nc4ccccc43)n2)cn1` [Cpd 208, N-(6-methoxypyridin-3-yl)-2-(2-methyl-1H-benzimidazol-1-yl)pyrimidine-4,6-diamine] were, in that order, 118 to 119 °C and 8.00 to 9.00.
In data set [1], `Cc1nc2ccc(N)cc2n1-c1nc(N)c(F)c(Nc2ccc(C(F)(F)F)cc2)n1` [Cpd 284, 2-(6-amino-2-methyl-1H-benzimidazol-1-yl)-5-fluoro-N-[4-(trifluoromethyl)phenyl]pyrimidine-4,6-diamine] had a pEC50 of 7.00 to 8.00.
